Data reported in patent US20240270821A1, “GIP/GLP1/GCG TRI-RECEPTOR AGONISTS AND USES THEREOF” (priority 2023, published 2024).
Like-named read-outs stand apart in the source and are kept apart here. Starred links: 1 amine or outer side, 2 acyl side, 3 side chain; linkers in the order of their positions; H or OH if unused. Non-standard residues stand in square brackets, D forms with d. Groups on a side chain read outwards from the residue. No end group written: not given here. *: point of attachment. C20 diacid = O=C(O)CCCCCCCCCCCCCCCCCCC(=O)*; C18 diacid = O=C(O)CCCCCCCCCCCCCCCCC(=O)*; αMePhe(2-F) = C[C@](N)(Cc1ccccc1F)C(=O)O; γGlu = O=C(O)[C@H](CCC(=O)[*:2])N[*:1]; αMe4Pal = C[C@](N)(Cc1ccncc1)C(=O)O; αMeY = C[C@](N)(Cc1ccc(O)cc1)C(=O)O; 4Pal = N[C@@H](Cc1ccncc1)C(=O)O; αMeL = CC(C)C[C@](C)(N)C(=O)O; αMeS = C[C@](N)(CO)C(=O)O; Orn = NCCC[C@H](N)C(=O)O; AEEA = NCCOCCOCC(=O)O; Aib = CC(C)(N)C(=O)O

What was measured:
Format in all cases: cell-based
hGLP-1R [1] = molecular target: T1, hGLP-1R (Homo sapiens, UniProt P43220); experiment: Functional cAMP activity in the presence of 1% HSA; conditions: read-out: cAMP Rel EC50, hGLP-1R
hGIPR [2] = molecular target: T2, hGIPR (Homo sapiens, UniProt P48546); experiment: Functional cAMP activity in the presence of 1% HSA; conditions: read-out: cAMP Rel EC50, hGIPR
T2 sequence (P48546 22-466): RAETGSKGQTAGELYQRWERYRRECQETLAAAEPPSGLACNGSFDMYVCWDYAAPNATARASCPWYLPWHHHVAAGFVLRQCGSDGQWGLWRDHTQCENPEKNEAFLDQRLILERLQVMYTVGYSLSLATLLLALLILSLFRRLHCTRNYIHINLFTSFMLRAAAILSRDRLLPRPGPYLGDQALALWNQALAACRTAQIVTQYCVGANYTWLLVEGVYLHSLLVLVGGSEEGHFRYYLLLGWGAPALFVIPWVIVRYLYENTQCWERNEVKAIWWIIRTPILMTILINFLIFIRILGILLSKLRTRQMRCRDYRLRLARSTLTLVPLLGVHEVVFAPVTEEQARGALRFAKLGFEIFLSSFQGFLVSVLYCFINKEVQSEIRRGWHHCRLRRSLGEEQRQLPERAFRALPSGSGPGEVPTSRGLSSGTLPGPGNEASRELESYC

human GcgR = human GcgR (Homo sapiens, UniProt P47871); experiment: Functional cAMP activity in the presence of 1% HSA; conditions: read-out: cAMP Rel EC50, hGcgR
hGIPR [3] = molecular target: T2, hGIPR; experiment: Functional cAMP activation in the presence of 0.1% casein (no HSA); conditions: read-out: Relative cAMP EC50, hGIPR;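 as to Relative cAMP EC50, hGIPR: intracellular cAMP rise after 30 min at 37 °C read by HTRF against a standard curve, scaled between buffer alone (0%) and top control ligand concentration (100%), four-parameter fit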;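 as to Relative cAMP EC50, hGLP-1R: intracellular cAMP rise after 30 min at 37 °C read by HTRF, normalized between buffer only (0%) and maximal control ligand (100%), four-parameter variable-slope fit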;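 as to Relative cAMP EC50, hGcgR: intracellular cAMP rise after 30 min at 37 °C, read by HTRF against a cAMP standard curve, scaled from buffer only (0%) to maximal control ligand response (100%)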
hGLP-1R [4] = molecular target: T1, hGLP-1R; experiment: as above; conditions: read-out: Relative cAMP EC50, hGLP-1R
hGcgR = hGcgR (Homo sapiens, UniProt P47871); experiment: as above; conditions: read-out: Relative cAMP EC50, hGcgR;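 also: intracellular cAMP rise after 30 min at 37 °C, read by HTRF against a cAMP standard curve, scaled from buffer only (0%) to maximal control ligand response (100%)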
[5] = in the presence of 0.1% casein (no HSA), geometric mean
[6] = 0.1% casein, no HSA, geometric mean

T1 sequence (P43220 24-463): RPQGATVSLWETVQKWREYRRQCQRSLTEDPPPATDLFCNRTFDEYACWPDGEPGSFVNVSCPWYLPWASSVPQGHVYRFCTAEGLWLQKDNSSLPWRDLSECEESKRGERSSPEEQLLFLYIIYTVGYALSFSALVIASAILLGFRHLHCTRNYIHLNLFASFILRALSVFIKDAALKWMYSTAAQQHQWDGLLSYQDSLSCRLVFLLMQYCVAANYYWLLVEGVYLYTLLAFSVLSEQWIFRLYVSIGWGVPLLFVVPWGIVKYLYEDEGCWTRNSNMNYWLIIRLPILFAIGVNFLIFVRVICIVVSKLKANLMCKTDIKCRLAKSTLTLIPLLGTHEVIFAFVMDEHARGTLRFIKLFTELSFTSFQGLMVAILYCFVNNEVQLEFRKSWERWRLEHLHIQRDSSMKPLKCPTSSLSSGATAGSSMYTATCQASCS
human GcgR, sequence (P47871 26-477): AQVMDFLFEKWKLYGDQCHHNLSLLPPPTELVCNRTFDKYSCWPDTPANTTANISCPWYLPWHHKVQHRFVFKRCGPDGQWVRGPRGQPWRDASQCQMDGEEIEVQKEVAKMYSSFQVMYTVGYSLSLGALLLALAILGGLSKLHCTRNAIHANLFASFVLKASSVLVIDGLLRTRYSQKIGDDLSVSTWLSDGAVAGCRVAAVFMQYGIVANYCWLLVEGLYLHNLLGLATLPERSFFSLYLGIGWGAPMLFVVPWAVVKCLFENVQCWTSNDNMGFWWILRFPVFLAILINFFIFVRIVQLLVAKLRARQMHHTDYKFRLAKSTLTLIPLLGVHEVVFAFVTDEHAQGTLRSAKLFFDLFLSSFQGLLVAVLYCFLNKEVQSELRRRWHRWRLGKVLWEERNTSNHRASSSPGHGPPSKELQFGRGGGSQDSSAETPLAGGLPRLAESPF
hGcgR, sequence (P47871 26-477): as above

Compound | EC50 (hGLP-1R [1]) | EC50 (hGIPR [2]) | EC50 (human GcgR) | EC50 (hGIPR [3]; [5]) | EC50 (hGLP-1R [4]; [5]) | EC50 (hGcgR; [5]) | EC50 (hGIPR [3]) | EC50 (hGLP-1R [4]) | EC50 (hGcgR) | EC50 (hGIPR [3]; [6]) | EC50 (hGLP-1R [4]; [6]) | EC50 (hGcgR; [6])
CC[C@H](C)[C@H](NC(=O)[C@H](CC(C)C)NC(=O)[C@H](Cc1ccc(O)cc1)NC(=O)[C@H](CCC(=O)O)NC(=O)[C@@H](NC(=O)[C@H](Cc1ccccc1)NC(=O)[C@H](C)NC(=O)[C@](C)(Cc1ccncc1)NC(=O)[C@H](CCC(N)=O)NC(=O)[C@H](C)NC(=O)[C@H](CCCCNC(=O)COCCOCCNC(=O)CC[C@H](NC(=O)CCCCCCCCCCCCCCCCC(=O)O)C(=O)O)NC(=O)[C@H](CCCCN)NC(=O)[C@H](CC(=O)O)NC(=O)[C@H](CC(C)C)NC(=O)[C@](C)(CC(C)C)NC(=O)[C@H](CCC(N)=O)NC(=O)[C@H](CO)NC(=O)[C@H](Cc1ccncc1)NC(=O)[C@H](CC(=O)O)NC(=O)[C@H](CO)NC(=O)[C@@H](NC(=O)[C@H](Cc1ccccc1)NC(=O)[C@@H](NC(=O)CNC(=O)[C@H](CCC(N)=O)NC(=O)C(C)(C)NC(=O)[C@@H](N)Cc1ccc(O)cc1)[C@@H](C)O)[C@@H](C)O)[C@@H](C)CC)C(=O)N[C@@H](C)C(=O)NCC(=O)NCC(=O)N1CCC[C@H]1C(=O)N[C@@H](CO)C(=O)N[C@@H](CO)C(=O)NCC(=O)N[C@@H](C)C(=O)N1CCC[C@H]1C(=O)N1CCC[C@H]1C(=O)N1CCC[C@H]1C(=O)N[C@@H](CO)C(=O)NCC(=O)N[C@@H](CO)C(N)=O [Example 827] | 53.8 nM | 19.5 nM | 424 nM | 0.12 nM | 0.593 nM | 4.23 nM | – | – | – | – | – | –
H-Y[Aib]QGT[αMePhe(2-F)]TSD[4Pal][αMeS]I[αMeL]LD[Orn]K([AEEA-γGlu-C18 diacid])AQ[Aib][Orn]FI[dE][αMeY]LIEGGPSSGEPEPSEG-NH2 [Example 481] | 14.2 nM | 1.19 nM | 100 nM | – | – | – | 0.0164 nM | 0.204 nM | 1.22 nM | – | – | –
Y[Aib]QGT[αMePhe(2-F)]TSDYSILLDAQAAK([AEEA-γGlu-C20 diacid])EFIEYLIEGGPSSGEPPPSEG-NH2 [Example 351] | 272 nM | 57.5 nM | 2470 nM | 0.243 nM | 0.679 nM | 12.1 nM | – | – | – | – | – | –
H-Y[Aib]QGTFTSD[4Pal]SQ[αMeL]LDKK([AEEA-γGlu-C18 diacid])AQ[αMe4Pal]AFIEYLIE[Aib]GPSSGAPPPEGS-NH2 [Example 851] | 428 nM | 24.4 nM | 558 nM | 0.215 nM | 3.06 nM | 3.38 nM | – | – | – | – | – | –
H-Y[Aib]QGT[αMePhe(2-F)]TSD[4Pal]SILLD[Orn]K([γGlu-γGlu-C18 diacid])AQ[Aib]AFIEYLEEGGPSSGAPPPSGTGE-NH2 [Example 514] | 82 nM | 10 nM | 1150 nM | – | – | – | 0.0744 nM | 0.623 nM | 6.68 nM | – | – | –
H-Y[Aib]QGTFTSDFS[Orn][αMeL]LDKK([AEEA-γGlu-C20 diacid])AQ[Aib]AFIEYLLEGGPSSGEPPPSEG-NH2 [Example 59] | 1370 nM | 166 nM | 2160 nM | 0.54 nM | 4.8 nM | 6.57 nM | – | – | – | – | – | –
H-Y[Aib]QGT[αMePhe(2-F)]TSD[4Pal][αMeS]I[αMeL]LD[Orn]K([AEEA-γGlu-C18 diacid])AQ[αMe4Pal]EFI[dE][αMeY]LVEGGPSSGAPPPTGE-NH2 [Example 1152] | 43.8 nM | 1.21 nM | 287 nM | 0.0101 nM | 0.371 nM | 2.32 nM | – | – | – | – | – | –
H-Y[Aib]QGT[αMePhe(2-F)]TSD[4Pal][αMeS]I[αMeL]LD[Orn]K([γGlu-γGlu-C18 diacid])AQ[αMe4Pal]EFI[dE][αMeY]LVEGGPSSGEPPPSGTGE-NH2 [Example 738] | 28.2 nM | 0.64 nM | 162 nM | – | – | – | 0.00991 nM | 0.368 nM | 1.87 nM | – | – | –
H-Y[Aib]QGT[αMePhe(2-F)]TSD[4Pal][αMeS]I[αMeL]LD[Orn]K([AEEA-γGlu-C18 diacid])AQ[αMe4Pal]EFI[dE][αMeY]LIEGGPSSGAPPPEGGGEEE-NH2 [Example 1217] | 62.7 nM | 1.06 nM | 253 nM | – | – | – | – | – | – | 0.0101 nM | 0.751 nM | 1.98 nM
H-Y[Aib]QGT[αMePhe(2-F)]TSD[4Pal]SILLDKK([AEEA-γGlu-C18 diacid])AQ[Aib]AFIEYLEEGGPSSGAPPPSGTGE-NH2 [Example 662] | 84.5 nM | 4.69 nM | 561 nM | – | – | – | 0.0704 nM | 0.946 nM | 4.81 nM | – | – | –
H-Y[Aib]QGT[αMePhe(2-F)]TSD[4Pal]SILLDKK([γGlu-γGlu-C18 diacid])AQ[Aib]AFIEYLEEGGPSSGAPPPSGEGE-NH2 [Example 621] | 111 nM | 7.31 nM | 901 nM | – | – | – | 0.0661 nM | 1.28 nM | 6.81 nM | – | – | –
Y[Aib]QGTFTSD[4Pal]S[Orn][αMeL]LDKK([γGlu-γGlu-C18 diacid])AQ[αMe4Pal]AFIE[αMe4Pal]LIE[Aib]GPSSGEPPPSGS-NH2 [Example 989] | 402 nM | 8 nM | 247 nM | 0.103 nM | 3.92 nM | 2.27 nM | – | – | – | – | – | –
H-Y[Aib]QGTFTSD[4Pal]SQ[αMeL]LDKK([AEEA-γGlu-C18 diacid])AQ[αMe4Pal]AFIEYLIEGGPSSGAPPPSGS-NH2 [Example 826] | 202 nM | 81.6 nM | 441 nM | 0.581 nM | 2.75 nM | 5.59 nM | – | – | – | – | – | –
H-Y[Aib]QGT[αMePhe(2-F)]TSDYSKLLDKIAQK([AEEA-γGlu-C20 diacid])AFIEYLIEGGPSSGAPPPEGE-NH2 [Example 357] | 248 nM | 42.9 nM | 1810 nM | 0.077 nM | 0.625 nM | 6.21 nM | – | – | – | – | – | –
H-Y[Aib]QGTFTSD[4Pal]S[Orn][αMeL]LDKK([γGlu-γGlu-C18 diacid])AQ[αMe4Pal]AFIE[αMeY]LIAGGPSSGAPPPEGS-NH2 [Example 1015] | 92.4 nM | 9.08 nM | 357 nM | 0.0822 nM | 1.01 nM | 3.53 nM | – | – | – | – | – | –
H-Y[Aib]QGTFTSDFS[Orn][αMeL]LDKK([AEEA-γGlu-C18 diacid])AQ[Aib]AFIEYLLEGGESSGAPPPGGS-NH2 [Example 161] | 963 nM | 87.3 nM | 902 nM | 0.555 nM | 5.22 nM | 4.83 nM | – | – | – | – | – | –
Y[Aib]QGT[αMePhe(2-F)]TSD[4Pal]SI[αMeL]LD[Orn]K([AEEA-γGlu-C18 diacid])AQ[αMe4Pal]EFI[dE][αMeY]LIEGGPSSGEPPPSGS-NH2 [Example 644] | 34.3 nM | 0.601 nM | 626 nM | – | – | – | 0.00649 nM | 0.309 nM | 5.91 nM | – | – | –
H-Y[Aib]QGTFTSD[4Pal]SQ[αMeL]LD[Orn]K([dE-γGlu-C18 diacid])AQ[αMe4Pal]AFIE[αMeY]LIAGGPSSGAPPPSGSEE-NH2 [Example 1074] | 101 nM | 8.49 nM | 1990 nM | 0.0745 nM | 0.794 nM | 22.8 nM | – | – | – | – | – | –
